Consider 17 compounds from patent US8895571B2, “Isoindolinone and pyrrolopyridinone derivatives as Akt inhibitors” (Incyte Corporation, priority 2011, dated 2014).

Each structure is given as a SMILES string. Bounds are passed on as bounds.

In one experiment the target is T1, Full length Akt1 (Homo sapiens, UniProt P31749).
T1 construct: Full length Akt1 (cat #P2999); purchased PerkinElmer P2999
The experiment can be described thus: In vitro Akt kinase enzymatic assay (HTRF), Akt1. Format: biochemical. Particulars: 0.4 nM Akt1, substrate solution with 5 mM ATP, 25° C. 1 hr. The method, boiled down: (§1)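 Full-length enzyme (0.4 nM Akt1 or 0.6 nM Akt2/Akt3 in the enzyme solution) was combined with a substrate solution of 0.1 μM ULight-Crosstide plus 5 mM ATP in pH 7.8 HEPES/MgCl2/DTT/Tween20 buffer and reacted 1 hr at 25° C. The EDTA stop contained Eu anti-phospho-Crosstide; IC50 was fitted from 11-point HTRF inhibition curves.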

A further experiment has as its target T2, Full length Akt3 (Homo sapiens, UniProt Q9Y243).
T2 construct: Full length Akt1 (cat #P2999), Akt2 (cat #PV3184), Akt3 (cat #PV3185); purchased PerkinElmer PV3185
Kind of experiment: In vitro Akt kinase enzymatic assay (HTRF), Akt3. Format: biochemical. Particulars: 0.6 nM Akt3, substrate solution with 5 mM ATP, 25° C. 1 hr. The method, boiled down:
as §1
In general terms: In TR-FRET formats the signal depends on donor and acceptor labels being close together.

In experiment [1] the test system is LNCaP cells (human prostate tumor cell line). Kind of experiment: Akt LNCaP proliferation assay (MTS). Format: cell-based. As to conditions: 48 hours. As for the experimental part:
LNCaP cells (human prostate tumor cell line) were plated in 96 well plates (COSTAR, Corning, N.Y.) in 50 μL at 10,000 cells/well in RPMI (Media Tech, Manassas, Va.), 2% fetal bovine serum (Hyclone/Thermo, Logan, Utah) and incubated overnight at 37° C., 5% CO2. […] of compound solution were added at final concentrations of 1000 nM to 0.5 nM in 3 fold dilutions for IC50 determination and plates further incubated for 48 hours. 100 μL of Cell Titer 96® Aqueous reagent, from an MTS colorimetric method for determining the number of viable cells in proliferation (Cell titer 96, Promega, Madison, Wis.) was added for 2 hours at 37° C., 5% CO2. Each plate was mixed well and read on a SpectroMax M5 automated plate reader (Molecular Devices, Sunnyvale Calif.). The ability of the compound to inhibit proliferation was reported as the inhibitor concentration required for 50% inhibition (IC50 values) of total cell proliferation. See Table 8 for data related to compounds of the examples.

A further experiment addresses T3, Full length PKA (Homo sapiens, UniProt P17612).
T3 construct: Full length PKA (cat #P2912); purchased Invitrogen P2912
Kind of experiment: PKA in vitro enzymatic assay (HTRF). Particulars: 0.035 nM enzyme solution, substrate solution with 5 mM ATP, 25° C. 1 hr. Format: biochemical. The method, boiled down:
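IC50 came from curve fitting of percent inhibition across an 11-point, 3-fold compound series, with HTRF read after EDTA quench and Tb-labelled p-S133 antibody detection. Enzyme (0.035 nM solution) and substrate (0.1 μM fluorescein-CREBtide solution containing 5 mM ATP) reacted for 1 h at 25°C. The buffer was HEPES 50 mM pH 7.8 with 10 mM MgCl2, 5 mM DTT and 0.005% Tween20.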

Another experiment deals with T4, Full length Akt2 (Homo sapiens, UniProt P31751).
T4 construct: Full length Akt1 (cat #P2999), Akt2 (cat #PV3184); purchased PerkinElmer PV3184
T4 sequence (P31751 whole entry): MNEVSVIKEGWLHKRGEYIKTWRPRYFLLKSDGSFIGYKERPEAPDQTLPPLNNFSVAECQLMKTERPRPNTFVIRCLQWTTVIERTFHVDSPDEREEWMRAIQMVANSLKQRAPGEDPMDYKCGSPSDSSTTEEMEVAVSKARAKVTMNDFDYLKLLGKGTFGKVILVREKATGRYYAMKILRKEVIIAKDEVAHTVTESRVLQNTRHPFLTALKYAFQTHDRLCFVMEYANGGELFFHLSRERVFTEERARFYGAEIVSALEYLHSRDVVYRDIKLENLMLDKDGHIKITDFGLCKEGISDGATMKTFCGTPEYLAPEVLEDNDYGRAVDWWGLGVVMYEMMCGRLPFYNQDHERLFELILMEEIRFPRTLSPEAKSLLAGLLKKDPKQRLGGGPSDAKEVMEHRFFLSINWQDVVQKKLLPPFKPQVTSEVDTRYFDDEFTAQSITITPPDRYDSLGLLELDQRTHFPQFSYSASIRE
The experiment can be described thus: In vitro Akt kinase enzymatic assay (HTRF), Akt2. The class given is biochemical. As to conditions: 0.6 nM Akt2, substrate solution with 5 mM ATP, 25° C. 1 hr. The method, boiled down:
as §1

[2] abbreviates: 2% fetal bovine serum, class symbols.
Setting [3] is: given as a bound, final concentrations 1000 nM to 0.5 nM.

T1 sequence (P31749 whole entry): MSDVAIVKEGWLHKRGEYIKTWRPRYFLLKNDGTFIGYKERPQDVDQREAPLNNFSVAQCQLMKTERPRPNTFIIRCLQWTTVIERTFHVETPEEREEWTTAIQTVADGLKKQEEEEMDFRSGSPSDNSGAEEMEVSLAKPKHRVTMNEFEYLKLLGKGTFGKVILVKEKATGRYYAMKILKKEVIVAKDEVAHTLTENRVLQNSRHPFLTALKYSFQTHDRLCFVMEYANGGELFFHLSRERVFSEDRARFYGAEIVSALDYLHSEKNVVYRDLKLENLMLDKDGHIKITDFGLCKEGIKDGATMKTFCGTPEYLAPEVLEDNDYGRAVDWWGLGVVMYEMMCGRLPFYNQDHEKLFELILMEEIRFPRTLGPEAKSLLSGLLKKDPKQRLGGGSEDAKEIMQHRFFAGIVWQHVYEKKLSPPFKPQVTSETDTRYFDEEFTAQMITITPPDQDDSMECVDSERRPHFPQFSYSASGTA
T2 sequence (Q9Y243 whole entry): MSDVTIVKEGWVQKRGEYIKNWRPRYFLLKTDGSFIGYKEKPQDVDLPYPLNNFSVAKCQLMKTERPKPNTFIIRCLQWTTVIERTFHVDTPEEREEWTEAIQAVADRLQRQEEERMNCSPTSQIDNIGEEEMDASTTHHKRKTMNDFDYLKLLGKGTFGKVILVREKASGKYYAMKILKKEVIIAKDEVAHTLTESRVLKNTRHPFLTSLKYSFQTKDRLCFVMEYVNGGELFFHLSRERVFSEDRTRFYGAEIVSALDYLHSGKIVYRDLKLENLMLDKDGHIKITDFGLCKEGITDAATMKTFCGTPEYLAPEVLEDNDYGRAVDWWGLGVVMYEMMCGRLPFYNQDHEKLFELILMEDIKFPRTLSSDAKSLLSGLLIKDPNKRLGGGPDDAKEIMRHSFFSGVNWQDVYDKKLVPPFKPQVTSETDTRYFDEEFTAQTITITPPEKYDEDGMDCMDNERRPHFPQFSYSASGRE

One may read the IC50 as the concentration at which inhibition is half-maximal. Read a low IC50 as higher potency. Consider `Cn1ncc(Cl)c1-c1ccc2c(c1)CN([C@H](CN)Cc1cccc(F)c1)C2=O` [Example 2, 2-[(1S)-2-amino-1-(3-fluorobenzyl)ethyl]-5-(4-chloro-1-methyl-1H-pyrazol-5-yl)isoindolin-1-one], for which the IC50 against Full length Akt1 was less than 500 nM; at Full length Akt3, less than 500 nM; in experiment [1] (setting [2]), less than 500 nM; on Full length PKA, 0.5 to 5 µM; against Full length Akt2, less than 500 nM.

`Cn1ncc(Cl)c1-c1cc2c(cn1)C(=O)N([C@H](CN)CC1CCCCC1)C2` [Example 135, 2-[(1S)-2-amino-1-(cyclohexylmethyl)ethyl]-6-(4-chloro-1-methyl-1H-pyrazol-5-yl)-1,2-dihydro-3H-pyrrolo[3,4-c]pyridin-3-one]: the half-inhibitory concentration (IC50) on Full length Akt1 is less than 500 nM; against Full length Akt3, less than 500 nM; in experiment [1] (setting [2]), less than 500 nM; against Full length PKA, 0.5 to 5 µM; against Full length Akt2, less than 500 nM.

As for `CC(C)OCc1cnn(C)c1-c1cc2c(cn1)C(=O)N([C@H](CN)Cc1cc(F)cc(F)c1)C2` [Example 106, 2-[(1S)-2-amino-1-(3,5-difluoro-benzyl)ethyl]-6-[4-(2-propoxy-methyl)-1-methyl-1H-pyrazol-5-yl]-1,2-dihydro-3H-pyrrolo[3,4-c]pyridin-3-one], the IC50 at Full length Akt1 was less than 500 nM; on Full length Akt3, less than 500 nM; in experiment [1] (setting [2]), less than 500 nM; against Full length PKA it was more than 5 µM; against Full length Akt2 it was less than 500 nM.

`COCc1cnn(C)c1-c1cc2c(cn1)C(=O)N([C@H](CN)Cc1cc(F)cc(F)c1)C2` [Example 105, 2-[(1S)-2-amino-1-(3,5-difluoro-benzyl)ethyl]-6-(4-methoxymethyl-1-methyl-1H-pyrazol-5-yl)-1,2-dihydro-3H-pyrrolo[3,4-c]pyridin-3-one]: the IC50 is less than 500 nM against Full length Akt1; less than 500 nM against Full length Akt3; 500 to 5000 nM in experiment [1] (setting [2]); more than 5 µM against Full length PKA; 500 to 5000 nM at Full length Akt2.

For the compound `Cn1ncc(COC2CCC2)c1-c1cc2c(cn1)C(=O)N([C@H](CN)Cc1cc(F)cc(F)c1)C2` [Example 108, 2-[(1S)-2-amino-1-(3,5-difluoro-benzyl)ethyl]-6-[4-(cyclobutoxy-methyl)-1-methyl-1H-pyrazol-5-yl]-1,2-dihydro-3H-pyrrolo[3,4-c]pyridin-3-one], the concentration for half-maximal inhibition (IC50) was less than 500 nM against Full length Akt1; less than 500 nM against Full length Akt3; less than 500 nM in experiment [1] (setting [2]); 0.5 to 5 µM against Full length PKA; less than 500 nM at Full length Akt2.

For `Cn1nccc1-c1ccc2c(c1)CN([C@H](CN)Cc1cc(F)cc(F)c1)C2=O` [Example 40, 2-[(1S)-2-amino-1-(3,5-difluorobenzyl)ethyl]-5-(1-methyl-1H-pyrazol-5-yl)isoindolin-1-one], the half-maximal inhibitory concentration (IC50) at Full length Akt1 is less than 500 nM; on Full length Akt3, less than 500 nM; in experiment [1] (setting [2]), less than 500 nM; at Full length PKA, 0.5 to 5 µM; on Full length Akt2, less than 500 nM.

Turning to `Cn1nccc1-c1ccc2c(c1)CN([C@H](CN)Cc1ccsc1)C2=O` [Example 81, 2-[(1S)-2-amino-1-(3-thienylmethyl)ethyl]-5-(1-methyl-1H-pyrazol-5-yl)isoindolin-1-one], the IC50 against Full length Akt1 was less than 500 nM; on Full length Akt3, less than 500 nM; in experiment [1] (setting [2]) it was less than 500 nM; at Full length PKA it was 0.5 to 5 µM; at Full length Akt2, less than 500 nM.

With `C#Cc1cccc(C[C@@H](CN)N2Cc3cc(-c4ccnn4C)ccc3C2=O)c1` [Example 88, 2-[(1S)-2-amino-1-(3-ethynylbenzyl)ethyl]-5-(1-methyl-1H-pyrazol-5-yl)isoindolin-1-one], the IC50 on Full length Akt1 is less than 500 nM; against Full length Akt3, less than 500 nM; in experiment [1] (setting [2]), less than 500 nM; at Full length PKA it was 0.5 to 5 µM; at Full length Akt2 it was less than 500 nM.

As for `Cn1ncc(Br)c1-c1ccc2c(c1)CN([C@H](CN)Cc1cccc(F)c1)C2=O` [Example 12, 2-[(1S)-2-amino-1-(3-fluorobenzyl)ethyl]-5-(4-bromo-1-methyl-1H-pyrazol-5-yl)isoindolin-1-one], the half-maximal inhibitory concentration (IC50) was less than 500 nM on Full length Akt1; less than 500 nM against Full length Akt3; less than 500 nM in experiment [1] (setting [2]); 0.5 to 5 µM at Full length PKA; less than 500 nM on Full length Akt2.

With `CCOCc1cnn(C)c1-c1ccc2c(c1)CN([C@H](CN)Cc1cccc(F)c1)C2=O` [Example 5, 2-[(1S)-2-amino-1-(3-fluorobenzyl)ethyl]-5-(4-ethoxymethyl-1-methyl-1H-pyrazol-5-yl)isoindolin-1-one], the half-inhibitory concentration (IC50) on Full length Akt1 is less than 500 nM; against Full length Akt3, less than 500 nM; in experiment [1] (setting [2]), less than 500 nM; at Full length PKA, more than 5 µM; against Full length Akt2, less than 500 nM.

`Cn1nccc1-c1ccc2c(c1)CN([C@H](CN)Cc1cccc(-c3ccncc3)c1)C2=O` [Example 85, 2-[(1S)-2-amino-1-(3-pyridin-4-ylbenzyl)ethyl]-5-(1-methyl-1H-pyrazol-5-yl)isoindolin-1-one]: the IC50 against Full length Akt1 is more than 5000 nM; at Full length Akt3, more than 5000 nM; in experiment [1] (setting [3]), more than 1000 nM; against Full length PKA it was more than 5 µM; at Full length Akt2 it was more than 5000 nM.

Take `Cn1nccc1-c1ccc2c(c1)CN([C@H](CN)Cc1cccc(-c3cccnc3)c1)C2=O` [Example 86, 2-[(1S)-2-amino-1-(3-pyridin-3-ylbenzyl)ethyl]-5-(1-methyl-1H-pyrazol-5-yl)isoindolin-1-one]: the concentration for half-maximal inhibition (IC50) at Full length Akt1 is 500 to 5000 nM; against Full length Akt3 it was more than 5000 nM; in experiment [1] (setting [3]), more than 1000 nM; at Full length PKA, more than 5 µM; at Full length Akt2, more than 5000 nM.

Consider `Cn1ncc(C#N)c1-c1ccc2c(c1)CN([C@H](CN)Cc1cccc(F)c1)C2=O` [Example 13, 2-[(1S)-2-amino-1-(3-fluorobenzyl)ethyl]-5-(4-cyano-1-methyl-1H-pyrazol-5-yl)isoindolin-1-one], for which the half-maximal inhibitory concentration (IC50) at Full length Akt1 was less than 500 nM; against Full length Akt3, less than 500 nM; in experiment [1] (setting [2]), less than 500 nM; against Full length PKA it was more than 5 µM; at Full length Akt2 it was less than 500 nM.

In the case of `Cc1cnn(C)c1-c1ccc2c(c1)CN([C@H](CN)Cc1cc(F)cc(F)c1)C2=O` [Example 42, 2-[(1S)-2-amino-1-(3,5-difluorobenzyl)ethyl]-5-(4-methyl-1-methyl-1H-pyrazol-5-yl)isoindolin-1-one], the IC50 at Full length Akt1 was less than 500 nM; at Full length Akt3 it was less than 500 nM; in experiment [1] (setting [2]), less than 500 nM; against Full length PKA, 0.5 to 5 µM; on Full length Akt2, less than 500 nM.

On to `Cn1ncc(Cl)c1-c1ccc2c(c1)CN([C@H](CN)Cc1cscn1)C2=O` [Example 69, 2-[(1S)-2-amino-1-(1,3-thiazol-4-ylmethyl)ethyl]-5-(4-chloro-1-methyl-1H-pyrazol-5-yl)isoindolin-1-one], for which the IC50 was less than 500 nM at Full length Akt1; 500 to 5000 nM against Full length Akt3; more than 5000 nM in experiment [1] (setting [2]); 0.5 to 5 µM against Full length PKA; 500 to 5000 nM against Full length Akt2.

With `Cn1ncc(Cl)c1-c1ccc2c(c1)CN([C@H](CN)Cc1cccc(-c3ccncc3)c1)C2=O` [Example 72, 2-[(1S)-2-amino-1-(3-pyridin-4-ylbenzyl)ethyl]-5-(4-chloro-1-methyl-1H-pyrazol-5-yl)isoindolin-1-one], the concentration for half-maximal inhibition (IC50) on Full length Akt1 is more than 5000 nM; on Full length Akt3, more than 5000 nM; in experiment [1] (setting [3]) it was more than 1000 nM; against Full length PKA it was more than 5 µM; at Full length Akt2, more than 5000 nM.

Consider `Cn1ncc(Cl)c1-c1cnc2c(c1)CN([C@H](CN)Cc1cccc(F)c1)C2=O` [Example 90, 6-[(1S)-2-amino-1-(3-fluorobenzyl)ethyl]-3-(4-chloro-1-methyl-1H-pyrazol-5-yl)-5,6-dihydro-7H-pyrrolo[3,4-b]pyridin-7-one], for which the half-inhibitory concentration (IC50) was less than 500 nM on Full length Akt1; less than 500 nM at Full length Akt3; less than 500 nM in experiment [1] (setting [2]); more than 5 µM on Full length PKA; less than 500 nM against Full length Akt2.
